This is an account of results in article PMC10122656, “Siglec-6 mediates the uptake of extracellular vesicles through a noncanonical glycolipid binding pocket” (Nature Communications, 2023).

Where “and” joins values, the source holds several entries; their conditions need not be identical. Equal values may be shown once.

One assay has as its system Siglec-1-Fc R116A. As to the kind of experiment: Liposome over lectin assay (LOLA). To be noted: Siglec-1 R (arginine mutant); replicates. In kind it is binding, human. As to the method:
Siglec-Fc constructs designed by Rodrigues et al.[30] were used in this work. Siglec-Fc constructs were expressed using WT CHO cells in cell culture media as described above with 1% HEPES. Cells incubated as described above for one-week post confluency. The supernatant was harvested and stored at 4 °C.
The purification was heavily inspired by Rodrigues et al.[30]. The purification of the Siglec-Fcs from supernatant began with Ni^2+ affinity chromatography using an AKTA FPLC equipped with a HisTrap Excel column (GE). The column was equilibrated with fifteen column volumes (CVs) of equilibrium buffer (500 mM NaCl, 20 mM NaPO4H2, pH 7.4). The Siglec-Fc containing supernatant was then loaded in its entirety onto the column. The column was then washed with fifteen CVs of wash buffer (500 mM NaCl, 30 mM imidazole, 20 mM NaPO4H2, pH 7.4). The Siglec-Fc was then eluted in 20 in 1 mL fractions with twenty CVs of elution buffer (500 mM NaCl, 500 mM imidazole, 20 mM NaPO4H2, pH 7.4). Fractions containing Siglec-Fc were compiled and then prepared for the next stage of purification by diluting the fractions 1:4 with buffer W (100 mM Tris–HCl, 150 mM NaCl, 1 mM EDTA, pH 8.0). A Strep-Tactin column (IBA life sciences) was washed with fifteen CVs of buffer W. The Siglec-Fc-buffer W solution was then loaded in its entirety onto the column. The bound Siglec-Fc was then washed with fifteen CVs of buffer W. Siglec-Fc was eluted from the column with 15 column volumes of buffer E (100 mM Tris–HCl, 150 mM NaCl, 1 mM EDTA, 10 mM d-Desthiobiotin, pH 8.0). Fractions containing Siglec-Fc were pooled and dialyzed against PBS to remove any d-Desthiobiotin. After dialysis, Siglec-Fcs were concentrated using an ultra-centrifugal device (30 kDa MWCO) and aliquoted into 5 µg aliquots, and frozen. The Siglec-Fcs were then lyophilized overnight, and the lyophilized Siglec-Fcs were stored at −20 °C.
Siglec-Fc in PBS was adsorbed to a 96-well flat-bottom fluorescent microplate by adding 1 µg/well and incubating the plate at 4 °C overnight. The plate was then washed with PBS followed by blocking with 5% (m/V) BSA in PBS for 1 h at room temperature. The plate was again washed with PBS and 100 µM liposome in PBS was added to each well. The plate was then incubated at 37 °C for 30 min followed by washing with PBS. PBS was then added to the plate and the fluorescence intensity (λex 640 nm, λem 680 nm) of each well was measured using a Molecular Devices SpectraMAX ® iD5.

In assay [1] the target is T1, Daudi cells transduced with WT Siglec-6 (Homo sapiens, UniProt O43699).
T1 construct: expressed in transfected cells; host or cells: Daudi cells (human B-cell line), lentiviral transduction
T1 sequence (O43699 27-453): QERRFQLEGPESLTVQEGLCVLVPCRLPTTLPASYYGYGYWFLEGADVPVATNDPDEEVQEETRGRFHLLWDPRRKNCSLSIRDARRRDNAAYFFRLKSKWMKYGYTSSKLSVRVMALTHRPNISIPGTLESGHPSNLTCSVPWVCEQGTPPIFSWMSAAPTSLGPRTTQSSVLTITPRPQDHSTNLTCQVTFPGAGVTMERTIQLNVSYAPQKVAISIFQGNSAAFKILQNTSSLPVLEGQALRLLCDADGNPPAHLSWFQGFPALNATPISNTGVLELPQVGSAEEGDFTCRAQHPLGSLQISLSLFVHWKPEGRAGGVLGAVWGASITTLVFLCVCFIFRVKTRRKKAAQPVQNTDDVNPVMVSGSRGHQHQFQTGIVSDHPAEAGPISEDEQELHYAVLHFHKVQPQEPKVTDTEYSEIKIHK
As to the kind of experiment: pHrodo internalization assay by flow cytometry. In kind it is cell-based. To be noted: for liposome internalization signal (replicates): sheet Figure S42b. Here is the method:
Siglec-6 lentivirus was produced as previously reported by Bhattacherjee, A. et al.[72]. Briefly, 1 × 10^6 HEK293T cells were plated in a 6-well dish containing 1.5 mL of DMEM growth medium (Gibco) containing 10% (V/V) fetal bovine serum (FBS; Gibco), 100 U/mL penicillin (Gibco) and 100 µg/mL streptomycin (Gibco). 24 h later, a mixture of 625 ng RP18, 625 ng RP19, 1250 ng hSiglec-6 vector, 7.5 µL TransIT®-LT1 Reagent (Mirus Bio), and Opti-MEM media (Gibco) was added to the HEK293T cells. Cells were incubated with this transfection mixture at 37 °C, 5% CO2 for 72 h. Following transfection, the cell supernatant was harvested and concentrated using Lenti-X concentrator reagent (Takara Bio) following the manufacturer’s instructions.
1.5 × 10^5 Daudi cells were plated in a 24-well plate in 250 µL of RPMI growth medium (Gibco) containing 10% (V/V) fetal bovine serum (FBS; Gibco), 100 U/mL penicillin (Gibco) and 100 µg/mL streptomycin (Gibco). A range of 10X concentrated lentivirus (1, 2, 5, 10 µL) was added to the corresponding wells and incubated for approximately 8 h at 37 °C, 5% CO2 in a tissue culture incubator. After incubation, the media in each well was topped up to 750 µL. Three days post-transduction, 200 µL of cells were plated in a 96-well U-bottom plate and centrifuged at 300 × g for 5 min. The cell pellets were resuspended in 150 µL of flow cytometry buffer (HBSS containing 1% (V/V) FBS, 500 µM EDTA) and the titer of each virus was determined by measuring the mAmentrine+ cells in each well by flow cytometry. The mAmetrine+ cells, ranging from 0.5% to 5%, were re-plated in six-well plates. The mAmetrine+ virally transduced cells were selected for using 300 µg/mL zeocin until the mAmetrine+ population was ≥95%.
Human peripheral blood, taken under an approved institutional ethics protocol, was centrifuged at 1700 × g for 5 min at 4 °C. The upper phase (plasma) was collected and centrifuged at 10,000 × g for 30 min at 4 °C. […]
For orientation: In flow cytometry, cells or beads pass a laser one at a time.

Assay [2] deals with syncytiotrophoblasts of placental explants. In words: Liposome uptake assay in the placenta explants (confocal microscopy). The format is cell-based, human. As to conditions: for liposome binding/uptake, fluorescence signal (replicates): cells not given.

Siglec-1-Fc R116A, sequence (Q9BZZ2 20-136 R116A limits assumed): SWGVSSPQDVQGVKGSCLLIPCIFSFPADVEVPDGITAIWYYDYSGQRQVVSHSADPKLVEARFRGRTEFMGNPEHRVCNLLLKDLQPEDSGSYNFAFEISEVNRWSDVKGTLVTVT

Turning to GD3, the “LOLA: GLL binding, fluorescence plate reader (Fig. 2e)” value (“LOLA: GLL binding” below) in the assay with Siglec-1-Fc R116A is 6.08 and 3.44 and 4.47 and 3.34 and 3.26.

For the compound GM3, the “liposome internalization signal (replicates)” value is 16.4 and 15.8 and 17.6 and 19.4 in assay [1] (WT-4); 30.6 and 27.6 and 33.7 and 27.8 in assay [1] (WT-37).

GM1: the “LOLA: GLL binding” value in the assay on Siglec-1-Fc R116A was 6.6 and 6.11 and 3.97 and 6.44 and 3.68.

In the case of GQ1b, the “LOLA: GLL binding” value in the assay with Siglec-1-Fc R116A is 6.93 and 2.97 and 4.43 and 6.13 and 5.67.

For GD1a, in the assay with Siglec-1-Fc R116A, the “LOLA: GLL binding” value was 8.88 and 7.01 and 5.82 and 9.99 and 5.45.

As for `CCCCCCCCCCCCCCCCOCC(COCCCCCCCCCCCCCCCC)OCc1cn(CCO[C@@H]2O[C@H](CO)[C@@H](O[C@@H]3O[C@H](CO)[C@H](O)[C@H](O[C@]4(C(=O)O)C[C@H](O)[C@@H](NC(C)=O)[C@H]([C@H](O)[C@H](O)CO)O4)[C@H]3O)[C@H](O)[C@H]2O)nn1` [GM3-DAG], the “liposome binding/uptake, fluorescence signal (replicates)” value is 5737 and 5556 and 5976 in assay [2] (sheet Figure S31, 5% GM3-DAG liposomes + mAb); 20862 and 18720 and 19576 in assay [2] (sheet Figure S31, 5% GM3-DAG liposomes, no mAb).

For `CCCCCCCCCCCCCCCCOCC(COCCCCCCCCCCCCCCCC)OCc1cn(CCO[C@@H]2O[C@H](CO)[C@@H](O[C@@H]3O[C@H](CO)[C@H](O)[C@H](O[C@]4(C(=O)O)C[C@H](O)[C@@H](NC(C)=O)[C@H]([C@H](O)[C@H](O)CO)O4)[C@H]3O)[C@H](O)[C@H]2O)nn1` [nGL 5], the “puncta of 5 nGLLs on syncytiotrophoblasts compared to naked liposomes” value in assay [2] (live human placental explants, 50 μM liposome, 2 h) is given as “significantly more puncta”. In addition, in assay [2] (placental explants), the “5 nGLL interaction with syncytiotrophoblasts after pre-treatment with anti-Siglec-6 antibody” value was “blocked these interactions” and the “colocalization of 5 nGLLs with Siglec-6 compared to naked liposomes” value is reported as “strong colocalization”. The “pHrodo signal of 5 nGLLs in Siglec-6 Daudi cells” value in assay [1] (independent of Arg122, only at 37 °C) is “time-dependent increase in pHrodo signal”.
